# How the values were obtained:
# Test in all cases: KINOMEscan affinity, competition binding
# ALK3 (BMPR1A) = molecular target: T1, ALK3 (BMPR1A) (Homo sapiens, UniProt P36894)
# T1 construct: purchased Eurofins (KINOMEscan service)
# Protocol: (§1) The affinity, measured as Kd (dissociation constants), of the compound of formula I for the ALK family was determined by using the KINOMEscan™ Technology from Eurofins. Selectivity in front of ALK1 (ACVRL1), ALK2 (ACVR1), ALK3 (BMPR1A), ALK4 (ACVR1B), ALK6 (BMPR1B), ACVR2B and TGFβR2 was determined.
# (§2) The KINOMEscan screening platform employs an active-site directed competition binding assay to quantitatively measure interactions between test compounds and kinases.
# (§3) The assay is performed by combining three components: DNA-tagged kinase; immobilized ligand; and a test compound. The ability of the test compound to compete with the immobilized ligand is measured via quantitative PCR of the DNA tag.
# (§4) Test compounds were prepared as 111× stocks in 100% DMSO. Kds were determined using an 11-point 3-fold compound dilution series with three DMSO control points being the top concentration 30 μM. […] The compounds were then diluted directly into the assays such that the final concentration of DMSO was 0.9%. All reactions performed in polypropylene 384-well plate. Each was a final volume of 0.02 ml. […] The beads were then re-suspended in elution buffer (1×PBS, 0.05% Tween 20, 0.5 μM non-biotinylated affinity ligand) and incubated at room temperature with shaking for 30 minutes. The kinase concentration in the eluates was measured by qPCR.
# (§5) Compounds that bind the kinase active site and directly (sterically) or indirectly (allosterically) prevent kinase binding to the immobilized ligand, will reduce the amount of kinase captured on the solid support. […] Dissociation constants (Kds) for test compound-kinase interactions are calculated by measuring the amount of kinase captured on the solid support as a function of the test compound concentration.
# ACVR2B = molecular target: T2, ACVR2B (Homo sapiens, UniProt Q13705)
# T2 construct: purchased Eurofins (KINOMEscan service)
# Protocol: as §1, §2, §3, §4, §5
# ALK6 (BMPR1B) = molecular target: T3, ALK6 (BMPR1B) (Homo sapiens, UniProt O00238)
# T3 construct: purchased Eurofins (KINOMEscan service)
# Protocol: as §1, §2, §3, §4, §5
# ALK1 (ACVRL1) = molecular target: T4, ALK1 (ACVRL1) (Homo sapiens, UniProt P37023)
# T4 construct: purchased Eurofins (KINOMEscan service)
# Protocol: as §1, §2, §3, §4, §5
# ALK2 (ACVR1) = molecular target: T5, ALK2 (ACVR1) (Homo sapiens, UniProt Q04771)
# T5 construct: purchased Eurofins (KINOMEscan service)
# T5 sequence (Q04771 21-509): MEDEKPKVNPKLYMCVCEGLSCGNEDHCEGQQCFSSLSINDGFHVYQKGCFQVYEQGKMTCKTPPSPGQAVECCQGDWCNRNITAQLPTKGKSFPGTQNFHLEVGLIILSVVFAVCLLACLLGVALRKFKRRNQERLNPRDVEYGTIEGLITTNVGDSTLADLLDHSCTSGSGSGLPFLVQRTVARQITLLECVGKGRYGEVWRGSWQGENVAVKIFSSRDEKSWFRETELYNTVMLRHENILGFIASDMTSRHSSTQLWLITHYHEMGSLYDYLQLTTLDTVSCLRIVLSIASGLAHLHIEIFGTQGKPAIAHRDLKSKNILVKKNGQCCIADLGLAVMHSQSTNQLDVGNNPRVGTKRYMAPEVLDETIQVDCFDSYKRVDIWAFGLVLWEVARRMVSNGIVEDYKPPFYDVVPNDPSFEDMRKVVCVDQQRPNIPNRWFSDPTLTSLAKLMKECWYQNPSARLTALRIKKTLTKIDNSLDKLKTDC
# Protocol: as §1, §2, §3, §4, §5
# TGFBR2 = molecular target: T6, TGFBR2 (Homo sapiens, UniProt P37173)
# T6 construct: purchased Eurofins (KINOMEscan service)
# Protocol: as §1, §2, §3, §4, §5
# T4 sequence (P37023 22-503): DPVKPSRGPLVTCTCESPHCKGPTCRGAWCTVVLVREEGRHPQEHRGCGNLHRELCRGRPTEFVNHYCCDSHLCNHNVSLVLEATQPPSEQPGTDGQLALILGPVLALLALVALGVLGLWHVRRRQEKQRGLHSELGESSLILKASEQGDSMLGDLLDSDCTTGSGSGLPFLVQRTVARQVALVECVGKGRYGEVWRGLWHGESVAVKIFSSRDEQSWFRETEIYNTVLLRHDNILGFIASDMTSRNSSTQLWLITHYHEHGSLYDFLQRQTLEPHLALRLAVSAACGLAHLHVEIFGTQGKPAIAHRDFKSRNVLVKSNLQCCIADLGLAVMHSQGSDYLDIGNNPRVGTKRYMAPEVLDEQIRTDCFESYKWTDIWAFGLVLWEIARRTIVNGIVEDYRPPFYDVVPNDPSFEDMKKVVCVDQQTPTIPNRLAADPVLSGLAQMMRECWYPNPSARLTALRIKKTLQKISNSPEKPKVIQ
# T2 sequence (Q13705 19-512): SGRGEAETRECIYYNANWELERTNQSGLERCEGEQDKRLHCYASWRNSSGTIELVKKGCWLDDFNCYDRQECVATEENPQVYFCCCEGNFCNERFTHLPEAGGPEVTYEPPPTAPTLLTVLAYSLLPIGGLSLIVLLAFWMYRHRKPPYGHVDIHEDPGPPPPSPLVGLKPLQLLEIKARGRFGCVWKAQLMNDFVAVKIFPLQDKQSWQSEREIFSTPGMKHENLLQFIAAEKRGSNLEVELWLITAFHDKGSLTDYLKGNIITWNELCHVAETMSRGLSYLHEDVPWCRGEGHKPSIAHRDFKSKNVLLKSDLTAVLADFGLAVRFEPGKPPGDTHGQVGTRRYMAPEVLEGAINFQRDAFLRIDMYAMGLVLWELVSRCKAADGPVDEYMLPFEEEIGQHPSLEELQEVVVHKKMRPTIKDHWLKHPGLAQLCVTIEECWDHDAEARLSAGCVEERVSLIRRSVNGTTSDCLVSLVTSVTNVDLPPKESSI
# T1 sequence (P36894 24-532): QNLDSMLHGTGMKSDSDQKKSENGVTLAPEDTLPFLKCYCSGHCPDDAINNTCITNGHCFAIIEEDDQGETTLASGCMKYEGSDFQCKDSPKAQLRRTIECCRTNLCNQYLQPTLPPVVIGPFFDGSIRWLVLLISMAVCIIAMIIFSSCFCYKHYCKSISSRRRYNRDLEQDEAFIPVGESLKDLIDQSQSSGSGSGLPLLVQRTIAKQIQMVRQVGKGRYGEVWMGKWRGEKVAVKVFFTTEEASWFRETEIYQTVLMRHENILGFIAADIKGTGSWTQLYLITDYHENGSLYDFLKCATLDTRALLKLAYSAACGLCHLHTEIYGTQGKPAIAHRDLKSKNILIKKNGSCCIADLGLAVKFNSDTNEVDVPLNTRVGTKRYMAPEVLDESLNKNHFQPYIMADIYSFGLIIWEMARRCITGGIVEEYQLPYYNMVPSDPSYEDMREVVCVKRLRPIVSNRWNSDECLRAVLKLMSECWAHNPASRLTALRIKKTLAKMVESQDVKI
# T6 sequence (P37173 23-567): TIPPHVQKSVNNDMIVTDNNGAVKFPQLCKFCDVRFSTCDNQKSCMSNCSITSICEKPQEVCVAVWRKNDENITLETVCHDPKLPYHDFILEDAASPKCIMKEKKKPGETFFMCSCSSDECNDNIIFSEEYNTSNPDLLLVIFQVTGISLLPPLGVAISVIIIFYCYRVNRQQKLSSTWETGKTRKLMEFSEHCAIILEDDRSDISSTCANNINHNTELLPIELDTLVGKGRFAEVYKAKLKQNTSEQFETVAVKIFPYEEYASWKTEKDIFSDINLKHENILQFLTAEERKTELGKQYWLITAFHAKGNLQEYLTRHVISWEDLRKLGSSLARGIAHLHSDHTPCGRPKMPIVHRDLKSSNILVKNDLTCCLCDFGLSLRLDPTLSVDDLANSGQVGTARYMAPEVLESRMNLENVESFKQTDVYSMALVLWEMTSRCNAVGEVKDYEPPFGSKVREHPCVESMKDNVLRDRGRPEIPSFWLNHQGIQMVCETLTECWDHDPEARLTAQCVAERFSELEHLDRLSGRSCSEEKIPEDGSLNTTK
# T3 sequence (O00238 14-502): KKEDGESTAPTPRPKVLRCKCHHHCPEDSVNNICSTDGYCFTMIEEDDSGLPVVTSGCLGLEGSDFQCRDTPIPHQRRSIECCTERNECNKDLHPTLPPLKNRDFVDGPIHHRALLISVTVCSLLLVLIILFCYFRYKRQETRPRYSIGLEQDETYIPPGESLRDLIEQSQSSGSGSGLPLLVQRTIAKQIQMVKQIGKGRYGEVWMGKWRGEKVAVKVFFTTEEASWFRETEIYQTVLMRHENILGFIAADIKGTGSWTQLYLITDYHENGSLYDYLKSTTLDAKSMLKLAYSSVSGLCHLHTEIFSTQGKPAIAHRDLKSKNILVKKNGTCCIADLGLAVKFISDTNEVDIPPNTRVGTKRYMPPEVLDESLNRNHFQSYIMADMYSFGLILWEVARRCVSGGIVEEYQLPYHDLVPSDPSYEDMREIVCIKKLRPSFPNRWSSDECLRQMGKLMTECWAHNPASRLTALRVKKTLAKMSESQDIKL
smiles,measurement,setting,value
"Cc1cccc(-c2nn3c(c2-c2ccnc4ccc(O)cc24)CCC3)n1 [compound of formula I, 4-(2-(6-methylpyridin-2-yl)-5,6-dihydro-4H-pyrrolo[1,2-b]pyrazol-3-yl)quinolin-6-ol]",Selectivity improvement,ALK3 (BMPR1A); (I) versus Galunisertib,3.5
same,Selectivity against ALK5,ALK3 (BMPR1A); ALK3 versus ALK5,345
same,selectivity for ALK5 against ALK3,ALK3 (BMPR1A); KINOMEscan,greater than 300 fold
same,Selectivity improvement,ACVR2B; (I) versus Galunisertib,1.2
same,Selectivity against ALK5,ACVR2B; ACVR2B versus ALK5,5.0
same,selectivity for ALK5 against ACVR2B,ACVR2B; KINOMEscan,5 fold
same,Selectivity improvement,ALK6 (BMPR1B); (I) versus Galunisertib,2.9
same,Selectivity against ALK5,ALK6 (BMPR1B); ALK6 versus ALK5,8.0
same,selectivity for ALK5 against ALK6,ALK6 (BMPR1B); KINOMEscan,8 fold
same,Selectivity improvement,ALK1 (ACVRL1); (I) versus Galunisertib,3.8
same,Selectivity against ALK5,ALK1 (ACVRL1); ALK1 versus ALK5,550
same,selectivity for ALK5 against ALK1,ALK1 (ACVRL1); KINOMEscan,greater than 300 fold
same,Selectivity improvement,ALK2 (ACVR1); (I) versus Galunisertib,1.8
same,Selectivity against ALK5,ALK2 (ACVR1); ALK2 versus ALK5,375
same,selectivity for ALK5 against ALK2,ALK2 (ACVR1); KINOMEscan,greater than 300 fold
same,Selectivity improvement,TGFBR2; (I) versus Galunisertib,83
same,selectivity for ALK5 against TGFBR2,TGFBR2; KINOMEscan,100 fold
same,Selectivity against ALK5,TGFBR2; TGFBR2 versus ALK5,100

# Reference: patent US20220089600A1, “TGFß INHIBITOR AND PRODRUGS” (FUNDACIÓ INSTITUT DE RECERCA BIOMÈDICA (IRB BARCELONA), priority 2018, published 2022)
